{"source": "patent US6939863B2", "about": "“Prevention of atherosclerosis and restenosis” (priority 2002, dated 2005)", "key": {"[1]": {"tested_on": "rat vascular smooth muscle cells", "assay": "Vascular smooth muscle cell proliferation (cell number)", "type": "cell-based", "details": "for Cell number of VSMCs: 24 hours", "protocol": "(§1) Rat vascular smooth muscle cells (VSMCs) (passages 5-10) were prepared from Sprague-Dawley rats and cultured in Dulbecco's modified Eagle's medium (DMEM) supplemented with 10% fetal bovine serum (FBS) as previously described (Kirschenlohr et al, in “Human Cell Culture Protocols”, New Jersey, Humana Press Inc, 1996, pp. 318-335). Human endothelial cells from umbilical veins were prepared as described (Morgan, in “Human Cell Culture Protocols”, New Jersey, Humana Press Inc, 1996, pp. 101-152)\n(§2) Rat vascular smooth muscle cells and human endothelial cells were plated at a density of 10,000 cells per square centimeter in 24-well plates. After 24 hours, cells at 70-80% confluency were treated with propylthiouracil dissolved in 100% dimethylsulfoxide (DMSO) at final concentrations of from 0.05 millimolar to 15 millimolar, or with methimazole (Sigma, St. Louis, Mo.) dissolved in water at the concentrations of from 0.01 millimolar to 1 millimolar for 24-72 hours. Cell numbers were visually counted using a hemocytometer. For the thymidine incorporation study, cells were deprived of serum for 36 hours and labeled with [methyl-^3H]thymidine at […] per milliliter for 12-24 hours after synchronization. Thymidine incorporation was then measured (Newby and George, 1996, Curr. Opin. Cardiol., 11:547). Effects of propylthiouracil and methimazole on the number of vascular smooth muscle cells and human endothelial cells and thymidine incorporation by vascular smooth muscle cells were each expressed as a percentage of the number and thymidine incorporation of control cells maintained in medium containing 0.1% DMSO as vehicle."}, "[2]": {"assay": "in vivo", "details": "male, New Zealand White, rabbit, 0.1 % in the drinking water, Serum PTU at sacrifice, 0.1% propylthiouracil in drinking water", "protocol": "Serum propylthiouracil levels were measured by HPLC with mephenoxalone (Tung Yang Chemical Industries, Taiwan) as an internal standard. One hundred microliters of serum was placed into a tube containing 25 microliters of mephenoxalone (Tung Yang Chemical Industries, Taiwan) at 1 milligram per milliliter. All tubes were treated with 25 microliters of 1 molar K2HPO4 and mixed well by vortexing. The contents of each tube were extracted with 2 milliliters of methyl tert-butyl ether (MTBE) (Sigma, St. Louis, Mo.). Tube contents were mixed and centrifuged for 10 minutes at 3000 rpm at 25° C. The supernatant was transferred to a glass tube, dried under nitrogen gas, and reconstituted with 300 microliters of mobile phase. HPLC was performed by using a Hitachi HPLC system (Hitachi, Japan). An ODS column (Cosmosil 5C18-MS, 4.6 millimeters×250 millimeters, 5 micrometers, Nacalai Tesque, Japan) was used in this chromatographic separation, as well as an ultraviolet detector detecting at 275 nanometers. The mobile phase (acetonitrile/water/phosphoric acid, 40/60/0.5, vol/vol/vol) was degassed and filtered before use. The column flow rate was 1.0 milliliter per minute and column temperature was maintained at 40° C."}, "[3]": {"tested_on": "human endothelial cells from umbilical veins", "assay": "cells", "protocol": "as §1, §2"}}}
{"smiles": "CCCc1cc(=O)[nH]c(=S)[nH]1", "note": "[Propylthiouracil, 6-n-propyl-2-thiouracil]", "values": [{"measurement": "Cell number of VSMCs", "setting": "[1]; 0.05 millimolar", "value": "103 % of control"}, {"measurement": "Proliferation of VSMCs at low concentration", "setting": "[1]; 0.05 millimolar, 24 hours treatment", "value": "not inhibited"}, {"measurement": "Proliferation of VSMCs at low concentration, long-term", "setting": "[1]; 0.05 millimolar, exposed for more than 2 days", "value": "antiproliferative effect was indeed observed"}, {"measurement": "Cell number of VSMCs", "setting": "[1]; 0.5 millimolar", "value": "103 % of control"}, {"measurement": "Cell number of VSMCs", "setting": "[1]; 2.5 millimolar", "value": "76 % of control"}, {"measurement": "Cell number of VSMCs", "setting": "[1]; 5 millimolar", "value": "57 % of control"}, {"measurement": "IC50", "setting": "[1]; Rattus norvegicus, VSMC, 24 h, read-out: IC50 for VSMCs (proliferation)", "value": 5.8, "unit": "mM"}, {"measurement": "Inhibition of growth/proliferation of VSMCs", "setting": "[1]; concentration-dependent, PTU 0.05-5 millimolar, methimazole 0.01-1 millimolar", "value": "significantly inhibited"}, {"measurement": "concentration at 12 weeks", "setting": "[2]; 2% cholesterol diet", "value": "1330 ± 1200", "unit": "ng/mL"}, {"measurement": "concentration at 12 weeks", "setting": "[2]; normal chow", "value": "1570 ± 700", "unit": "ng/mL"}, {"measurement": "Concentration at which significant inhibition of growth of vascular endothelial cells was observed", "setting": "[3]; 24 hours", "value": "≥ 10", "unit": "millimolar"}, {"measurement": "Growth of vascular endothelial cells", "setting": "[3]; 24 hours, concentrations of up to 7.5 millimolar", "value": "did not significantly inhibit"}, {"measurement": "Difference in inhibitory effect, vascular endothelial cells less than vascular smooth muscle cells", "setting": "[3]; FIG. 7", "value": "20-30%"}, {"measurement": "IC50", "setting": "[3]; Homo sapiens, Endothelial cell, 24 h, read-out: IC50 for endothelial cells (proliferation)", "value": 12, "unit": "mM"}, {"measurement": "Endothelial cellular function", "setting": "[3]; summary table, propylthiouracil", "value": "+"}]}
